Structures can show the parent of a compound that is named as a salt. Bounds are passed on as bounds.

The target in this experiment is T1, human recombinant 6His-Nterm SHP2 full-length (Thr2-Arg593) (Homo sapiens, UniProt Q06124).
T1 construct: 6His-Nterm SHP2 full-length (Thr2-Arg593, R&D system); 6His (N); purchased R&D system
T1 sequence (Q06124 2-593): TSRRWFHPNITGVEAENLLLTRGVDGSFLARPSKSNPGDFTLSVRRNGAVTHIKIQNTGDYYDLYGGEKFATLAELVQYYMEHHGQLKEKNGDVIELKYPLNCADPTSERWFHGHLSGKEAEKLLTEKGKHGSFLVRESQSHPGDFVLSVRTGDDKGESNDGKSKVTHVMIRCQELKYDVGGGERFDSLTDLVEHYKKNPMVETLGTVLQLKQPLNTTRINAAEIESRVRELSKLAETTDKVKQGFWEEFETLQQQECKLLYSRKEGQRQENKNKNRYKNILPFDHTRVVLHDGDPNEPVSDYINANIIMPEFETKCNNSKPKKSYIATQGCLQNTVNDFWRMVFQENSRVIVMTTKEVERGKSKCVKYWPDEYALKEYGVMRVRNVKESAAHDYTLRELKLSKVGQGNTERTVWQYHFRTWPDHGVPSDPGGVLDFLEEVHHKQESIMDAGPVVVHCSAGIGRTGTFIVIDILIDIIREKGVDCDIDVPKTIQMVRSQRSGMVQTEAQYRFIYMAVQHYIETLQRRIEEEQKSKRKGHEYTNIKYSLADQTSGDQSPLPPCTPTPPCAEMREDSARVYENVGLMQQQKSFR
The experiment is described as follows: SHP2 Phosphatase Assay (DiFMUP fluorescence). In kind it is biochemical. The settings on record: SHP2 0.2 nM pre-incubated with 100 nM bi-phosphorylated activating peptide; compound 1000-0.05 nM, 30 min pre-incubation; DiFMUP 20 µM, 45 min, room temperature; 10-concentration dose-response. An outline of the steps: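 SHP2 (0.2 nM) preactivated ≥10 min with 100 nM bis-phosphorylated peptide, then 30 min with compound (10 concentrations, 1000–0.05 nM) at room temperature, pH 7.2 HEPES buffer with DTT. DiFMUP (20 µM, added solution) reacted 45 min, pervanadate-stopped; fluorescence 350/450 nm. IC50 by 4-parameter logistic fit.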
For orientation: IC50 means the point on the concentration scale where inhibition reaches its midpoint. As to `COc1ccc2c(n1)[C@H](N)C1(CCN(c3nc(C)c(-c4cccc(F)c4Cl)n4nccc34)CC1)C2` [Compound 216, (7R)-1'-[7-(2-chloro-3-fluoro-phenyl)-6-methyl-pyrazolo[1,5-a]pyrazin-4-yl]-2-methoxy-spiro[5,7-dihydrocyclopenta[b]pyridine-6,4'-piperidine]-7-amine], the concentration for half-maximal inhibition (IC50) is 685 nM.

As to `Cc1nccc(-c2c(C)nc(N3CCC4(CC3)Cc3cc(F)ccc3[C@H]4N)c3ccnn23)c1Cl` [Compound 217, (1S)-1'-[7-(3-Chloro-2-methyl-4-pyridyl)-6-methyl-pyrazolo[1,5-a]pyrazin-4-yl]-5-fluoro-spiro[indane-2,4'-piperidine]-1-amine formate], the IC50 came to 8 nM.

For `Cc1nccc(-c2c(C)nc(N3CCC4(CC3)Cc3nc(O)sc3[C@H]4N)c3ccnn23)c1Cl` [Compound 218, (6S)-6-amino-1'-[7-(3-chloro-2-methyl-4-pyridyl)-6-methyl-pyrazolo[1,5-a]pyrazin-4-yl]spiro[4,6-dihydrocyclopenta[d]thiazole-5,4'-piperidine]-2-ol hydrochloride], the IC50 turned out to be 179 nM.

Regarding `COc1nc2c(s1)[C@@H](N)C1(CCN(c3nc(C)c(-c4ccnc(C)c4Cl)n4nccc34)CC1)C2` [Compound 219, (6S)-1'-[7-(3-chloro-2-methyl-4-pyridyl)-6-methyl-pyrazolo[1,5-a]pyrazin-4-yl]-2-methoxy-spiro[4,6-dihydrocyclopenta[d]thiazole-5,4'-piperidine]-6-amine], the IC50 was determined as 5 nM.

On to `COc1nc2c(s1)[C@@H](N)C1(CCN(c3nc(C)c(-c4cnn(C)c4C)n4nccc34)CC1)C2` [Compound 220, (6S)-1'-[7-(1,5-Dimethylpyrazol-4-yl)-6-methyl-pyrazolo[1,5-a]pyrazin-4-yl]-2-methoxy-spiro[4,6-dihydrocyclopenta[d]thiazole-5,4'-piperidine]-6-amine], for which the concentration for half-maximal inhibition (IC50) was 26 nM.

For the compound `COc1ccc2c(n1)CC1(CCN(c3nc(C)c(-c4cccc(F)c4F)n4nccc34)CC1)[C@@H]2N` [Compound 221, (5S)-1'-[7-(2,3-difluorophenyl)-6-methyl-pyrazolo[1,5-a]pyrazin-4-yl]-2-methoxy-spiro[5,7-dihydrocyclopenta[b]pyridine-6,4'-piperidine]-5-amine], the IC50 came out at 21 nM.

For `Cc1nc(N2CCC3(CC2)Cc2nc(O)ccc2[C@H]3N)c2ccnn2c1-c1cccc(F)c1F` [Compound 222, (5S)-5-amino-1'-[7-(2,3-difluorophenyl)-6-methyl-pyrazolo[1,5-a]pyrazin-4-yl]spiro[5,7-dihydrocyclopenta[b]pyridine-6,4'-piperidine]-2-ol hydrochloride], the half-maximal inhibitory concentration (IC50) turned out to be 1 nM.

As to `Cc1nc(N2CCC3(CC2)Cc2nc(CO)ccc2[C@H]3N)c2ccnn2c1-c1ccccc1` [Compound 223, [(5S)-5-amino-1'-(6-methyl-7-phenyl-pyrazolo[1,5-a]pyrazin-4-yl)spiro[5,7-dihydrocyclopenta[b]pyridine-6,4'-piperidine]-2-yl]methanol], the concentration for half-maximal inhibition (IC50) was determined as 13 nM.

With `Cc1nc2c(o1)[C@@H](N)C1(CCN(c3nc(C)c(-c4ccccc4F)n4nccc34)CC1)C2` [Compound 224, (6S)-1'-[7-(2-fluorophenyl)-6-methyl-pyrazolo[1,5-a]pyrazin-4-yl]-2-methyl-spiro[4,6-dihydrocyclopenta[d]oxazole-5,4'-piperidine]-6-amine], the half-maximal inhibitory concentration (IC50) is 27 nM.

In the case of `COCc1cnn2c(-c3ccccc3F)c(C)nc(N3CCC4(CC3)Cc3ncccc3[C@H]4N)c12` [Compound 225, (5S)-1'-[7-(2-fluorophenyl)-3-(methoxymethyl)-6-methyl-pyrazolo[1,5-a]pyrazin-4-yl]spiro[5,7-dihydrocyclopenta[b]pyridine-6,4'-piperidine]-5-amine], the half-maximal inhibitory concentration (IC50) is above 1000 nM.

As for `Cc1nc(N2CCC3(CC2)Cc2ncccc2[C@H]3N)c2ccnn2c1-c1cccn(C)c1=O` [Compound 227, 3-[4-[(5S)-5-aminospiro[5,7-dihydrocyclopenta[b]pyridine-6,4'-piperidine]-1'-yl]-6-methyl-pyrazolo[1,5-a]pyrazin-7-yl]-1-methyl-pyridin-2-one], the 50% inhibitory concentration (IC50) was above 1000 nM.

As to `Cc1nc(N2CCC3(CC2)Cc2ncccc2[C@H]3N)c2ccnn2c1-c1ccn(C)c(=O)c1F` [Compound 228, 4-[4-[(5S)-5-aminospiro[5,7-dihydrocyclopenta[b]pyridine-6,4'-piperidine]-1'-yl]-6-methyl-pyrazolo[1,5-a]pyrazin-7-yl]-3-fluoro-1-methyl-pyridin-2-one], the half-inhibitory concentration (IC50) amounted to 86 nM.

For `Cc1nccc(Sc2c(C)nc(N3CCC4(CC3)Cc3ncccc3[C@H]4N)c3ccnn23)c1F` [Compound 229, (5S)-1'-[7-[(3-fluoro-2-methyl-4-pyridyl)sulfanyl]-6-methyl-pyrazolo[1,5-a]pyrazin-4-yl]spiro[5,7-dihydrocyclopenta[b]pyridine-6,4'-piperidine]-5-amine], the IC50 was determined as 14 nM.

For the compound `Cc1nc(N2CCC3(CC2)Cc2ncccc2[C@H]3N)c2ccnn2c1Sc1cccnc1C(F)(F)F` [Compound 230, (5S)-1'-(6-methyl-7-((2-(trifluoromethyl)pyridin-3-yl)thio)pyrazolo[1,5-a]pyrazin-4-yl)-5,7-dihydrospiro[cyclopenta[b]pyridine-6,4'-piperidin]-5-amine], the IC50 is 15 nM.

As to `Cc1nccc(Sc2c(C)nc(N3CCC4(CC3)Cc3ncccc3[C@H]4N)c3ccnn23)c1Cl` [Compound 231, (S)-1'-(7-((3-chloro-2-methylpyridin-4-yl)thio)-6-methylpyrazolo[1,5-a]pyrazin-4-yl)-5,7-dihydrospiro[cyclopenta[b]pyridine-6,4'-piperidin]-5-amine], the IC50 worked out at 8 nM.

For the compound `Cc1nc(N2CCC3(CC2)Cc2ncccc2[C@H]3N)c2ccnn2c1Sc1ccnc(N)c1Cl` [Compound 232, (5S)-1'-[7-[(2-amino-3-chloro-4-pyridyl)sulfanyl]-6-methyl-pyrazolo[1,5-a]pyrazin-4-yl]spiro[5,7-dihydrocyclopenta[b]pyridine-6,4'-piperidine]-5-amine], the concentration for half-maximal inhibition (IC50) is 4 nM.

Values taken from patent publication EP4227307A1 (Genzyme Corporation, priority 2022, dated 2023).
